Assay results as given in the NIST ThermoML archive (doi:10.1021/je0602824).

Test: xn = mol fraction of the nth substance listed
Conditions: 101 kPa, Liquid

CCOS(=O)(=O)[O-].CCn1cc[n+](C)c1 [1-ethyl-3-methylimidazolium ethyl sulfate] + O
Conditions | mass density [kg/m3] | viscosity [mPa·s]
278.15 K, x2 = 0 | 1251.12 | 308
278.15 K, x2 = 0.0001 | – | 308
278.15 K, x2 = 0.2112 | 1246.59 | –
278.15 K, x2 = 0.2245 | – | 150
278.15 K, x2 = 0.4084 | – | 83
278.15 K, x2 = 0.4119 | 1239.56 | –
278.15 K, x2 = 0.5939 | 1227.74 | –
278.15 K, x2 = 0.5976 | – | 45
278.15 K, x2 = 0.7669 | 1201.83 | –
278.15 K, x2 = 0.7675 | – | 22
278.15 K, x2 = 0.8487 | 1175.63 | –
278.15 K, x2 = 0.9292 | 1120.63 | 6
278.15 K, x2 = 0.9683 | 1066.86 | –
278.15 K, x2 = 0.9916 | 1021.13 | –
288.15 K, x2 = 0 | 1244.13 | 166
288.15 K, x2 = 0.2112 | 1239.79 | –
288.15 K, x2 = 0.2245 | – | 86
288.15 K, x2 = 0.4084 | – | 49
288.15 K, x2 = 0.4119 | 1232.7 | –
288.15 K, x2 = 0.5939 | 1220.8 | –
288.15 K, x2 = 0.5976 | – | 27
288.15 K, x2 = 0.7669 | 1194.85 | –
288.15 K, x2 = 0.7675 | – | 14
288.15 K, x2 = 0.8487 | 1168.83 | –
288.15 K, x2 = 0.9292 | 1115.02 | 5
288.15 K, x2 = 0.9683 | 1063.25 | –
288.15 K, x2 = 0.9916 | 1019.46 | –
298.15 K, x2 = 0 | 1237.37 | 95
298.15 K, x2 = 0.2112 | 1232.99 | –
298.15 K, x2 = 0.2245 | – | 54
298.15 K, x2 = 0.4084 | – | 33
298.15 K, x2 = 0.4119 | 1225.85 | –
298.15 K, x2 = 0.5939 | 1213.87 | –
298.15 K, x2 = 0.5976 | – | 19
298.15 K, x2 = 0.7669 | 1187.81 | –
298.15 K, x2 = 0.7675 | – | 10
298.15 K, x2 = 0.8487 | 1161.92 | –
298.15 K, x2 = 0.9292 | 1109.14 | 4
298.15 K, x2 = 0.9683 | 1059.04 | –
298.15 K, x2 = 0.9916 | 1016.78 | –
308.15 K, x2 = 0 | 1230.61 | 62
308.15 K, x2 = 0.2112 | 1226.21 | –
308.15 K, x2 = 0.2245 | – | 36
308.15 K, x2 = 0.4084 | – | 23
308.15 K, x2 = 0.4119 | 1219.02 | –
308.15 K, x2 = 0.5939 | 1206.92 | –
308.15 K, x2 = 0.5976 | – | 14
308.15 K, x2 = 0.7669 | 1180.72 | –
308.15 K, x2 = 0.7675 | – | 8
308.15 K, x2 = 0.8487 | 1154.9 | –
308.15 K, x2 = 0.9292 | 1103 | 4
308.15 K, x2 = 0.9683 | 1054.27 | –
308.15 K, x2 = 0.9916 | 1013.26 | –
318.15 K, x2 = 0 | 1223.9 | 41
318.15 K, x2 = 0.2112 | 1219.45 | –
318.15 K, x2 = 0.2245 | – | 26
318.15 K, x2 = 0.4084 | – | 17
318.15 K, x2 = 0.4119 | 1212.21 | –
318.15 K, x2 = 0.5939 | 1199.97 | –
318.15 K, x2 = 0.5976 | – | 11
318.15 K, x2 = 0.7669 | 1173.56 | –
318.15 K, x2 = 0.7675 | – | 6
318.15 K, x2 = 0.8487 | 1147.77 | –
318.15 K, x2 = 0.9292 | 1096.59 | 3
318.15 K, x2 = 0.9683 | 1049.01 | –
318.15 K, x2 = 0.9916 | 1009.03 | –
328.15 K, x2 = 0 | 1217.23 | 30
328.15 K, x2 = 0.2112 | 1212.74 | –
328.15 K, x2 = 0.2245 | – | 19
328.15 K, x2 = 0.4084 | – | 13
328.15 K, x2 = 0.4119 | 1205.41 | –
328.15 K, x2 = 0.5939 | 1193.01 | –
328.15 K, x2 = 0.5976 | – | 9
328.15 K, x2 = 0.7669 | 1166.34 | –
328.15 K, x2 = 0.7675 | – | 6
328.15 K, x2 = 0.8487 | 1140.52 | –
328.15 K, x2 = 0.9292 | 1089.92 | 3
328.15 K, x2 = 0.9683 | 1043.29 | –
328.15 K, x2 = 0.9916 | 1004.16 | –
338.15 K, x2 = 0 | 1210.6 | 21
338.15 K, x2 = 0.2112 | 1206.05 | –
338.15 K, x2 = 0.2245 | – | 15
338.15 K, x2 = 0.4084 | – | 11
338.15 K, x2 = 0.4119 | 1198.63 | –
338.15 K, x2 = 0.5939 | 1186.03 | –
338.15 K, x2 = 0.5976 | – | 7
338.15 K, x2 = 0.7669 | 1159.05 | –
338.15 K, x2 = 0.7675 | – | 5
338.15 K, x2 = 0.8487 | 1133.14 | –
338.15 K, x2 = 0.9292 | 1083 | 3
338.15 K, x2 = 0.9683 | 1037.15 | –
338.15 K, x2 = 0.9916 | 998.72 | –
348.15 K, x2 = 0 | 1204.01 | 17
348.15 K, x2 = 0.2112 | 1199.4 | –
348.15 K, x2 = 0.2245 | – | 12
348.15 K, x2 = 0.4084 | – | 9
348.15 K, x2 = 0.4119 | 1191.91 | –
348.15 K, x2 = 0.5939 | 1179.05 | –
348.15 K, x2 = 0.5976 | – | 6
348.15 K, x2 = 0.7669 | 1151.68 | –
348.15 K, x2 = 0.7675 | – | 4
348.15 K, x2 = 0.8487 | 1125.7 | –
348.15 K, x2 = 0.9292 | 1075.83 | 2
348.15 K, x2 = 0.9683 | 1030.61 | –
348.15 K, x2 = 0.9916 | 992.76 | –
